Measurements from patent US20260232767A1, “INTERLEUKIN-23 RECEPTOR ANTAGONIST PEPTIDES FOR USE IN THE TREATMENT OF PSORIASIS” (Janssen Pharmaceutica NV, priority 2023, published 2026).

System: subjects with moderate-to-severe plaque psoriasis
Experiment: Safety, adverse events, Example 2 through Week 56
Type: in vivo, human
Settings: Placebo → 100 mg QD
From the text: The LTE safety analysis was based on randomized participants in Example who entered the present long-term extension study and received at least one dose of study intervention (including a partial dose) during the study period.

Compound: CC(=O)NCCCC[C@@H]1NC(=O)[C@H](Cc2c[nH]c3c(C)cccc23)NC(=O)[C@H]([C@@H](C)O)NC(=O)[C@H](CC(N)=O)NC(=O)[C@@H](NC(C)=O)C(C)(C)SSC(C)(C)[C@@H](C(=O)N[C@@H](Cc2ccc(OCCN)cc2)C(=O)N[C@@H](Cc2ccc3ccccc3c2)C(=O)NC2(C(=O)N[C@@H](CCC(=O)O)C(=O)N[C@@H](CC(N)=O)C(=O)N[C@@H](Cc3cccnc3)C(=O)N(C)CC(N)=O)CCOCC2)NC1=O [IL-23 receptor antagonist peptide, Ac-[Pen]*-N-T-[W(7-Me)]-[Lys(Ac)]-[Pen]*-Phe[4-(2-aminoethoxy)]-[2-Nal]-[THP]-E-N-[3-Pal]-Sarc-NH2 (*[Pen]-[Pen]* formdisulfidebond)]
- Subjects with serious adverse event: Ventricular dysfunction (LTE Safety analysis set): 0
- Subjects with 1 or more treatment-emergent adverse events leading to discontinuation of study agent (Week 16-56): 0
- Subjects with AE leading to discontinuation: Alanine aminotransferase increased (Week 16-56): 0
- Subjects with AE leading to discontinuation: Aspartate aminotransferase increased (Week 16-56): 0
- Subjects with AE leading to discontinuation: Asthenia (Week 16-56): 0
- Subjects with AE leading to discontinuation: Chills (Week 16-56): 0
- Subjects with AE leading to discontinuation: Ear and labyrinth disorders (Week 16-56): 0
- Subjects with AE leading to discontinuation: Gamma-glutamyltransferase increased (Week 16-56): 0
- Subjects with AE leading to discontinuation: Gastrointestinal disorders (Week 16-56): 0
- Subjects with AE leading to discontinuation: General disorders and administration site conditions (Week 16-56): 0
- Subjects with AE leading to discontinuation: Headache (Week 16-56): 0
- Subjects with AE leading to discontinuation: Insomnia (Week 16-56): 0
- Subjects with AE leading to discontinuation: Investigations (Week 16-56): 0
- Subjects with AE leading to discontinuation: Nervous system disorders (Week 16-56): 0
- Subjects with AE leading to discontinuation: Proctalgia (Week 16-56): 0
- Subjects with AE leading to discontinuation: Psoriasis (Week 16-56): 0
- Subjects with AE leading to discontinuation: Psychiatric disorders (Week 16-56): 0
- Subjects with AE leading to discontinuation: Skin and subcutaneous tissue disorders (Week 16-56): 0
- Subjects with AE leading to discontinuation: Vertigo (Week 16-56): 0
- Subjects with AE leading to discontinuation: Vomiting (Week 16-56): 0
- Subjects with treatment-emergent AE: Headache (Week 16-56): 0
- Subjects with treatment-emergent AE: Meniscus injury (Week 16-56): 0
- Subjects with treatment-emergent AE: Nasopharyngitis (Week 16-56): 9
- Subjects with treatment-emergent AE: Sinusitis (Week 16-56): 0
- Subjects with treatment-emergent AE: Vomiting (Week 16-56): 0
- Subjects with treatment-emergent serious AE: Cardiac disorders (Week 16-56): 0
- Subjects with treatment-emergent serious AE: Coronary artery disease (Week 16-56): 0
- Subjects with treatment-emergent serious AE: Diverticulitis (Week 16-56): 0
- Subjects with treatment-emergent serious AE: Foot deformity (Week 16-56): 0
- Subjects with treatment-emergent serious AE: General disorders and administration site conditions (Week 16-56): 0
- Subjects with treatment-emergent serious AE: Infections and infestations (Week 16-56): 0
- Subjects with treatment-emergent serious AE: Injury, poisoning and procedural complications (Week 16-56): 0
- Subjects with treatment-emergent serious AE: Intervertebral disc protrusion (Week 16-56): 0
- Subjects with treatment-emergent serious AE: Ligament injury (Week 16-56): 0
- Subjects with treatment-emergent serious AE: Musculoskeletal and connective tissue disorders (Week 16-56): 0
- Subjects with treatment-emergent serious AE: Neoplasms benign, malignant and unspecified (incl cysts and polyps) (Week 16-56): 0
- Subjects with treatment-emergent serious AE: Non-cardiac chest pain (Week 16-56): 0
- Subjects with treatment-emergent serious AE: Respiratory, thoracic and mediastinal disorders (Week 16-56): 0
- Subjects with treatment-emergent serious AE: Tonsillar hypertrophy (Week 16-56): 0
- Subjects with treatment-emergent serious AE: Uterine leiomyoma (Week 16-56): 0
- Subjects with treatment-emergent serious AE: Ventricular dysfunction (Week 16-56): 0
- Acrochordon: number of subjects (through Week 56): 0
- Actinic keratosis: number of subjects (through Week 56): 0
- Alopecia: number of subjects (through Week 56): 0
- Asthenia: number of subjects (through Week 56): 0
- Asthma: number of subjects (through Week 56): 0
- Atrioventricular block first degree: number of subjects (through Week 56): 0
- Basal cell carcinoma: number of subjects (through Week 56): 0
- Blood and lymphatic system disorders: number of subjects (through Week 56): 0
- Bronchitis chronic: number of subjects (through Week 56): 0
- Bundle branch block right: number of subjects (through Week 56): 0
- Cardiac disorders: number of subjects (through Week 56): 0
- Chills: number of subjects (through Week 56): 0
- Cholelithiasis: number of subjects (through Week 56): 0
- Chronic obstructive pulmonary disease: number of subjects (through Week 56): 0
- Coronary artery disease: number of subjects (through Week 56): 0
- Cough: number of subjects (through Week 56): 0
- Decreased appetite: number of subjects (through Week 56): 0
- Depression: number of subjects (through Week 56): 0
- Dermal cyst: number of subjects (through Week 56): 0
- Dermatitis acneiform: % of subjects (through Week 56): (2.9%)
- Dermatitis acneiform: number of subjects (through Week 56): 1
- Dermatitis contact: number of subjects (through Week 56): 0
- Diabetes mellitus: number of subjects (through Week 56): 0
- Diffuse alopecia: number of subjects (through Week 56): 0
- Dysuria: % of subjects (through Week 56): (2.9%)
- Dysuria: number of subjects (through Week 56): 1
- Ear and labyrinth disorders: number of subjects (through Week 56): 0
- Endocrine disorders: number of subjects (through Week 56): 0
- Eye disorders: % of subjects (through Week 56): (5.7%)
- Eye disorders: number of subjects (through Week 56): 2
- Eyelid skin dryness: number of subjects (through Week 56): 0
- Fatigue: number of subjects (through Week 56): 0
- General disorders and administration site conditions: number of subjects (through Week 56): 0
- Goiter: number of subjects (through Week 56): 0
- Haemochromatosis: % of subjects (through Week 56): (2.9%)
- Haemochromatosis: number of subjects (through Week 56): 1
- Hand dermatitis: % of subjects (through Week 56): (2.9%)
- Hand dermatitis: number of subjects (through Week 56): 1
- Hematuria: % of subjects (through Week 56): (2.9%)
- Hematuria: number of subjects (through Week 56): 1
- Hepatobiliary disorders: % of subjects (through Week 56): (2.9%)
- Hepatobiliary disorders: number of subjects (through Week 56): 1
- Hypercholesterolemia: number of subjects (through Week 56): 0
- Hyperglycemia: number of subjects (through Week 56): 0
- Hyperlipidemia: number of subjects (through Week 56): 0
- Hypertension: % of subjects (through Week 56): (2.9%)
- Hypertension: number of subjects (through Week 56): 1
- Hypertransaminasemia: % of subjects (through Week 56): (2.9%)
- Hypertransaminasemia: number of subjects (through Week 56): 1
- Hypertriglyceridemia: number of subjects (through Week 56): 0
- Hypoacusis: number of subjects (through Week 56): 0
- Immune system disorders: number of subjects (through Week 56): 0
- Influenza like illness: number of subjects (through Week 56): 0
- Insomnia: number of subjects (through Week 56): 0
- Intertrigo: number of subjects (through Week 56): 0
- Ketonuria: number of subjects (through Week 56): 0
- Leukocyturia: number of subjects (through Week 56): 0
- Leukopenia: number of subjects (through Week 56): 0
- Libido decreased: number of subjects (through Week 56): 0
- Liver disorder: number of subjects (through Week 56): 0
- Lymphopenia: number of subjects (through Week 56): 0
- Menopause: number of subjects (through Week 56): 0
- Metabolism and nutrition disorders: % of subjects (through Week 56): (2.9%)
- Metabolism and nutrition disorders: number of subjects (through Week 56): 1
- Neoplasms benign, malignant and unspecified (incl cysts and polyps): number of subjects (through Week 56): 0
- Nephrolithiasis: number of subjects (through Week 56): 0
- Neutropenia: number of subjects (through Week 56): 0
- Night sweats: number of subjects (through Week 56): 0
- Non-cardiac chest pain: number of subjects (through Week 56): 0
- Ocular cyst: % of subjects (through Week 56): (2.9%)
- Ocular cyst: number of subjects (through Week 56): 1
- Oedema peripheral: number of subjects (through Week 56): 0
- Oropharyngeal pain: % of subjects (through Week 56): (2.9%)
- Oropharyngeal pain: number of subjects (through Week 56): 1
- Procedural pain: number of subjects (through Week 56): 0
- Productive cough: number of subjects (through Week 56): 0
- Proteinuria: number of subjects (through Week 56): 0
- Pruritus: number of subjects (through Week 56): 0
- Psoriasis: number of subjects (through Week 56): 0
- Psychiatric disorders: number of subjects (through Week 56): 0
